According to the CheMixHub ionic liquid set:
± gives the uncertainty stated by the source.

Assay: xn = mol fraction of the nth substance listed

Compound: Cc1ccccc1 + CCCCCC[N+]1(C)CCCC1.O=S(=O)([N-]S(=O)(=O)C(F)(F)F)C(F)(F)F
- viscosity (308.15 K, 100 kPa, x1 = 1): 0.509 ± 0.012 mPa·s

Compound: COC(=O)OC + CC[n+]1ccn(C)c1.O=S(=O)([N-]S(=O)(=O)C(F)(F)F)C(F)(F)F
- viscosity (288.15 K, 101.3 kPa, x2 = 0): 0.668 ± 0.015 mPa·s
- viscosity (293.15 K, 101.3 kPa, x2 = 0): 0.628 ± 0.014 mPa·s
- viscosity (298.15 K, 101.3 kPa, x2 = 0): 0.588 ± 0.013 mPa·s
- viscosity (303.15 K, 101.3 kPa, x2 = 0): 0.553 ± 0.012 mPa·s
- viscosity (308.15 K, 101.3 kPa, x2 = 0): 0.524 ± 0.011 mPa·s

Compound: FC1CC(F)(F)C(F)(F)C1(F)F (stereo not given) + CCCC[N+]1(C)CCCC1.FC(F)(F)C(F)(F)[P-](F)(F)(F)(C(F)(F)C(F)(F)F)C(F)(F)C(F)(F)F
- viscosity (298.1 K, 101 kPa, x2 = 0): 1.65 ± 0.07 mPa·s
- viscosity (298.1 K, 101 kPa, x2 = 0.252): 8.05 ± 0.36 mPa·s
- viscosity (298.1 K, 101 kPa, x2 = 0.438): 21.3 ± 0.9 mPa·s
- electrical conductivity (298.1 K, 101 kPa, x2 = 0.653): 0.275 ± 0.006 S/m
- electrical conductivity (298.1 K, 101 kPa, x2 = 0.842): 0.167 ± 0.003 S/m
- electrical conductivity (303 K, 101 kPa, x2 = 0.177): 0.746 ± 0.015 S/m
- electrical conductivity (303 K, 101 kPa, x2 = 0.434): 0.424 ± 0.008 S/m
- electrical conductivity (303 K, 101 kPa, x2 = 0.839): 0.21 ± 0.004 S/m
- viscosity (303 K, 101 kPa, x2 = 0.844): 87.6 ± 3.9 mPa·s
- electrical conductivity (308.1 K, 101 kPa, x2 = 0.077): 0.594 ± 0.012 S/m
- electrical conductivity (313 K, 101 kPa, x2 = 0.183): 0.88 ± 0.018 S/m
- electrical conductivity (318.1 K, 101 kPa, x2 = 0.077): 0.699 ± 0.014 S/m
- viscosity (318.1 K, 101 kPa, x2 = 0.437): 11.2 ± 0.46 mPa·s
- electrical conductivity (318.1 K, 101 kPa, x2 = 0.836): 0.359 ± 0.007 S/m
- viscosity (323 K, 101 kPa, x2 = 0.655): 21.17 ± 0.87 mPa·s

Compound: CCCCCCCCn1cc[n+](C)c1.N#C[S-] + [Cl-].[Li+] + CN1CCCC1=O
- viscosity (298.15 K, 101 kPa, x1 = 0.001139, x2 = 0.07166): 3.748 ± 0.049 mPa·s
- viscosity (298.15 K, 101 kPa, x1 = 0.001259, x2 = 0.03751): 2.694 ± 0.036 mPa·s
- viscosity (298.15 K, 101 kPa, x1 = 0.001303, x2 = 0.1042): 5.098 ± 0.066 mPa·s
- viscosity (298.15 K, 101 kPa, x1 = 0.002343, x2 = 0.1041): 5.122 ± 0.066 mPa·s
- viscosity (298.15 K, 101 kPa, x1 = 0.002465, x2 = 0.07157): 3.763 ± 0.049 mPa·s
- viscosity (298.15 K, 101 kPa, x1 = 0.002516, x2 = 0.03747): 2.708 ± 0.036 mPa·s
- viscosity (298.15 K, 101 kPa, x1 = 0.00365, x2 = 0.104): 5.151 ± 0.066 mPa·s
- viscosity (298.15 K, 101 kPa, x1 = 0.003672, x2 = 0.03742): 2.735 ± 0.036 mPa·s
- viscosity (298.15 K, 101 kPa, x1 = 0.003977, x2 = 0.07146): 3.796 ± 0.049 mPa·s
- viscosity (298.15 K, 101 kPa, x1 = 0.004888, x2 = 0.1039): 5.175 ± 0.067 mPa·s
- viscosity (298.15 K, 101 kPa, x1 = 0.005019, x2 = 0.03737): 2.761 ± 0.037 mPa·s
- viscosity (298.15 K, 101 kPa, x1 = 0.005107, x2 = 0.07138): 3.83 ± 0.05 mPa·s
- viscosity (298.15 K, 101 kPa, x1 = 0.00605, x2 = 0.1038): 5.201 ± 0.067 mPa·s
- viscosity (298.15 K, 101 kPa, x1 = 0.006235, x2 = 0.0713): 3.857 ± 0.05 mPa·s
- viscosity (298.15 K, 101 kPa, x1 = 0.006361, x2 = 0.03732): 2.789 ± 0.037 mPa·s
- viscosity (298.15 K, 101 kPa, x1 = 0.007163, x2 = 0.1036): 5.219 ± 0.067 mPa·s
- viscosity (298.15 K, 101 kPa, x1 = 0.00736, x2 = 0.07122): 3.892 ± 0.05 mPa·s
- viscosity (298.15 K, 101 kPa, x1 = 0.007605, x2 = 0.03728): 2.811 ± 0.037 mPa·s
- viscosity (298.15 K, 101 kPa, x1 = 0.00842, x2 = 0.1035): 5.236 ± 0.067 mPa·s
- viscosity (298.15 K, 101 kPa, x1 = 0.00867, x2 = 0.07112): 3.932 ± 0.051 mPa·s
- viscosity (298.15 K, 101 kPa, x1 = 0.008845, x2 = 0.03723): 2.84 ± 0.038 mPa·s
- viscosity (298.15 K, 101 kPa, x1 = 0.009774, x2 = 0.1034): 5.256 ± 0.068 mPa·s
- viscosity (298.15 K, 101 kPa, x1 = 0.009789, x2 = 0.07104): 3.97 ± 0.051 mPa·s
- viscosity (298.15 K, 101 kPa, x1 = 0.01008, x2 = 0.03718): 2.854 ± 0.038 mPa·s
